Data as given in US20260250247A1, “NOVEL INDOLINE DERIVATIVE AND USE THEREOF” (CK REGEON INC., priority 2023, published 2026).
pIC50: −log10 of the molar value.

Tests used:
[1] = tested on: F4/80, CD11 b, α-SMA, collagen I, desmin in liver tissue; assay: Liver immunohistochemistry of inflammatory (F4/80, CD11 b) and fibrosis markers (α-SMA, collagen I, desmin) in MASH mice; type: in vivo, C57BL/6N mice; conditions: 25 mg/kg/day orally for 4 weeks; vs MASH group (vehicle)
Experimental: (§1) Five-week-old wild-type male C57BL/6N mice were purchased from Orient Bio Co., Ltd. They were allowed to acclimate to the laboratory environment for one week. Mice weighing 18-20 g on average were used in the experiment. To ensure ethical and scientific validity and efficient management of animal experiments, the experiment was conducted with the approval of the Institutional Review Board (IACUC-A-202205-1472-01) of Severance Hospital, Yonsei University College of Medicine.
The mice were divided into a normal group (NCD) and a high-fat diet group (HFD). The normal group (NCD) was fed a normal chow diet (NCD, Teklad Global 18% protein rodent diet), and the high-fat diet group (HFD) was fed a high-fat diet (HFD, D12492) in which fat accounted for 60% of the total calories, for 8 weeks. […]
(§2) The sections treated with the primary antibodies were washed with PBS and incubated with biotinylated anti-mouse (1:400; Dako) or anti-rabbit (1:400; Dako) secondary antibodies for 1 hour at room temperature. […] After the staining, images were taken and analyzed using a bright-field microscope (Nikon TE-2000U).
Through these experiments, the anti-inflammatory effect of the indoline derivatives of Examples 1 to 4 were analyzed in an animal model of nonalcoholic fatty liver disease. […]

[2] = tested on: β-catenin and CXXC5 in liver tissue; assay: Liver immunohistochemistry of β-catenin and CXXC5 in MASH mice; type: in vivo, C57BL/6N mice; conditions: 25 mg/kg/day orally for 4 weeks
Experimental: as §1
The mice were divided into a normal group (NCD) and a high-fat diet group (HFD). The normal group (NCD) was fed a normal chow diet (NCD, Teklad Global 18% protein rodent diet), and the high-fat diet group (HFD) was fed a high-fat diet (HFD, D12492) in which fat accounted for 60% of the total calories, for 8 weeks.
Mice induced with metabolic dysfunction-associated steatohepatitis (MASH) (hereinafter, referred to as MASH or MASH group) were prepared by administering CCl4 intraperitoneally twice a week for 4 weeks after feeding the high-fat diet (HFD) for 8 weeks. […]
as §2

[3] = biological target: CXXC5-Dvl interaction (PDZ domain of Dvl (dishevelled) protein / PTD-DBM-FITC); assay: CXXC5-Dvl binding inhibition, competition of PTD-DBM-FITC on plate-bound Dvl PDZ domain; conditions: purified Dvl PDZ domain 5 μg/mL, 10 μM PTD-DBM-FITC, compounds 0.001-100 μM, FITC fluorescence
Experimental: 5 μg/mL of the purified PDZ domain ofDvl (dishevelled) protein was attached to the bottom of a 96-well black immunoplate and left in a chamber at 4° C. for one day. The next day, each well was washed with PBS and 10 μM PTD-DBM-FITC was added. After incubation at room temperature for 3 hours, each well was washed with PBS. Each well was treated with the indoline derivatives at various concentrations (100, 10, 1, 0.1, 0.01, and 0.001 μM) in 100 μL of PBS. After washing with a buffer, fluorescence was measured by FITC using a microplate reader. A competition binding curve showing the degree of CXXC5-Dvl PPI inhibition was constructed using the GraphPad Prism software, and the IC50 value was calculated. […] CK090), and the intermediate compound 5-cyanoindirubin as controls.

pIC50 [3]: 4.96
SMILES: N#Cc1ccc2c(c1)/C(=C1/Nc3ccccc3C1=O)C(=O)N2 [5-cyanoindirubin]
collagen production and α-SMA expression in liver (fibrosis markers) [1]: did not show any significant difference from the MASH group (vehicle)
expression of inflammatory markers F4/80 and CD11 b in liver [1]: no significant difference was observed from the MASH group (vehicle)
β-catenin expression in liver, immunohistochemical staining [2]: no significant difference from the MASH group (vehicle)
